Data set [1] in a line: Cmax in rat at 20 mg/kg, po. It is filed as ADME, organism-based. On the set-up: dose 20 mg/kg, route oral. To be noted: in vivo.
Data set [2] in a line: Half life in iv dosed rat. To be noted: in vivo. It is filed as ADME, organism-based.
Data set [3] concerns Mus musculus. Description: Toxicity in db/db mouse assessed as sedative effect at 150 mg/kg, po after 13 days. It is filed as organism-based. On the set-up: dose 150 mg/kg, route oral. To be noted: in vivo, 312 h.
The target in data set [4] is 11-beta-hydroxysteroid dehydrogenase 1 (Rattus norvegicus, UniProt P16232). Put plainly: Inhibition of rat 11betaHSD1 assessed as reduction of cortisone to cortisol by ELISA. For orientation: An ELISA detects its analyte on a solid surface through an enzyme-linked reagent.
11-beta-hydroxysteroid dehydrogenase 1 (Rattus norvegicus, UniProt P16232), sequence (P16232 whole entry): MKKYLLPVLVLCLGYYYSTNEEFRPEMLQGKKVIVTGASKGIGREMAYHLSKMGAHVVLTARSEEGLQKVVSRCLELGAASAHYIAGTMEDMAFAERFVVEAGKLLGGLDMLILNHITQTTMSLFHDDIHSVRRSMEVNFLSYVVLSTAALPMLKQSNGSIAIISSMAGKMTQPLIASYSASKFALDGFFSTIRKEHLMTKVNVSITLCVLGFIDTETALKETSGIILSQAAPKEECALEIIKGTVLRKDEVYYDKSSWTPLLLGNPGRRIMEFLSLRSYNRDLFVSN
The nature of data set [5]: Clearance in iv dosed rat. The format is ADME, organism-based. To be noted: in vivo.
Data set [6] can be described thus: Oral bioavailability in rat. The format is ADME, organism-based. The settings on record: in vivo.
The nature of data set [7]: Tmax in po dosed rat. The format is ADME, organism-based. To be noted: in vivo.
Data set [8] relates to Mus musculus. Description: Reduction in plasma cortisol level in db/db mouse at 150 mg/kg, po after 30 mins […] measured after 5.5 hrs relative to control. It is filed as functional.
For another data set, the target named is Cytochrome P450 3A4 (Homo sapiens, UniProt P08684). Description: Inhibition of CYP3A4 (unknown origin). It is filed as ADME.
Cytochrome P450 3A4, sequence (P08684 whole entry): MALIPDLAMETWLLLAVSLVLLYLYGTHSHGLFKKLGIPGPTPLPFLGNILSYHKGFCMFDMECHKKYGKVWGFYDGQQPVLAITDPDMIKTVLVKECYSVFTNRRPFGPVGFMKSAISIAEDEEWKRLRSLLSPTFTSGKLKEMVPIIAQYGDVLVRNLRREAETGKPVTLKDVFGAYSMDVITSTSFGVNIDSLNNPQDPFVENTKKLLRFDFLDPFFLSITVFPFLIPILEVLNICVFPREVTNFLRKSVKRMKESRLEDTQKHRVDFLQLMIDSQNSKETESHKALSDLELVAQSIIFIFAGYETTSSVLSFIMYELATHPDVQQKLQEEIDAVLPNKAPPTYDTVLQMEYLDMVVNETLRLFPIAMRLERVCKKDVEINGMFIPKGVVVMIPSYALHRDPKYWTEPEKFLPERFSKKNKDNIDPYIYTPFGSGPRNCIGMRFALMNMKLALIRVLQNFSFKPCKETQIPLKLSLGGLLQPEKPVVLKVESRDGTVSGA
The nature of data set [9]: Kinetic aqueous solubility of the compound at pH 6.5. It is filed as physicochemical. To be noted: read-out: Kinetic_solubility.
Another data set has as its target hERG (KCNH2) (Homo sapiens, UniProt Q12809). Description: Inhibition of human ERG.
The nature of data set [10]: Volume of distribution at steady state in iv dosed rat. It is filed as ADME, organism-based. To be noted: in vivo, read-out: Vdss.
Data set [11] can be described thus: Clearance in human liver microsomes at 1 uM. It is filed as ADME. The settings on record: read-out: CLH.
Data set [12] can be described thus: Effective permeability of the compound at pH 6.5 by PAMPA. The format is physicochemical. To be noted: read-out: Peff. In general terms: The PAMPA barrier holds no transporters, so it reflects passive diffusion.
The nature of data set [13]: Cmax in rat at 50 mg/kg, po. The format is ADME, organism-based. On the set-up: dose 50 mg/kg, route oral. The settings on record: in vivo.
In data set [14] the target is 11-beta-hydroxysteroid dehydrogenase 1 (Homo sapiens, UniProt P28845). Description: Inhibition of full-length human 11betaHSD1 expressed in HEK293 cells assessed as cortisol level by competitive ELISA. The format is cell-based.
11-beta-hydroxysteroid dehydrogenase 1 (Homo sapiens, UniProt P28845), sequence (P28845 whole entry): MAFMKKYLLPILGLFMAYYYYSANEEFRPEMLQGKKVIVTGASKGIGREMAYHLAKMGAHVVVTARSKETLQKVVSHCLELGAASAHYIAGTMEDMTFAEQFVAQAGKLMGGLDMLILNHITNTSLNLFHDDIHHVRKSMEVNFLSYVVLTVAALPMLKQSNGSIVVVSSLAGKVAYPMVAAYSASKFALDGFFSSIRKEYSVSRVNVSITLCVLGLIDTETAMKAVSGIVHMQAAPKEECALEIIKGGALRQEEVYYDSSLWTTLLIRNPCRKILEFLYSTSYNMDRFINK

Molecules are shown by their SMILES. ≈ marks a conversion by molar mass, not a printed value. Where only a bound is given, the exact number is not on record here.

hERG (KCNH2), sequence (Q12809 whole entry): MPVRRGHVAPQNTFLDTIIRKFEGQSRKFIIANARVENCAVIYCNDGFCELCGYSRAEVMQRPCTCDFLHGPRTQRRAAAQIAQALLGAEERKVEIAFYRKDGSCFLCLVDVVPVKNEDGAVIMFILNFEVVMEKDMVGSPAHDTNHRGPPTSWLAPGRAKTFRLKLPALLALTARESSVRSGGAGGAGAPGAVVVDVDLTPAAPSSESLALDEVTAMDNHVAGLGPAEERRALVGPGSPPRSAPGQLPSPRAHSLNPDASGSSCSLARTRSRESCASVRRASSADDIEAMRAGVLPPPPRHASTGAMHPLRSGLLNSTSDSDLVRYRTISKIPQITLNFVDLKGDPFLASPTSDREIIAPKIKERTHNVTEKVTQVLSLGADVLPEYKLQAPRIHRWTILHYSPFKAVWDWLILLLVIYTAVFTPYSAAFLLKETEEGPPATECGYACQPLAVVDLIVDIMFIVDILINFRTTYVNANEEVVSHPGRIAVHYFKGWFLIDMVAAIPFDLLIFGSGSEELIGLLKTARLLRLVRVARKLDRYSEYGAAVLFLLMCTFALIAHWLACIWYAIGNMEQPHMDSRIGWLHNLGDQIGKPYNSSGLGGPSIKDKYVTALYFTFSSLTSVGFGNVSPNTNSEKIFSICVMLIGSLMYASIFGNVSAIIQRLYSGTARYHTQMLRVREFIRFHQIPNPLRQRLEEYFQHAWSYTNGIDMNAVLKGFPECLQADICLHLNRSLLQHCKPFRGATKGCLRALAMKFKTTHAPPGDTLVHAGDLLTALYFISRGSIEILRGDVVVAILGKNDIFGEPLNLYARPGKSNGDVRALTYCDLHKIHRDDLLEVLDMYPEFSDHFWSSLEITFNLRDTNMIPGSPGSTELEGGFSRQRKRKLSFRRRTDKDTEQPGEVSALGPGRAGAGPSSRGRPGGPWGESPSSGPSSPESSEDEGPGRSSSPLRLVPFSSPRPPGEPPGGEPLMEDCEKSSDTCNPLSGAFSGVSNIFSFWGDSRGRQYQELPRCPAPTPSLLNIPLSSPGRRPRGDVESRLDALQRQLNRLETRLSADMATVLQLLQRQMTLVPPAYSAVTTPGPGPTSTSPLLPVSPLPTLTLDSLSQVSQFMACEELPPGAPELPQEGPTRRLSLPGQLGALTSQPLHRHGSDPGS

What is called Cmax is the maximum level reached in the sampled fluid or tissue. A word on the half-life: it is the time in which the quantity being followed falls by half. A high value points to slow decline. The IC50 is the concentration that gives 50% inhibition. By clearance is commonly meant the volume of plasma or blood freed of the substance per unit of time. The low end stands for inefficient removal, the high end for efficient removal. A word on the Tmax: it is the time from dosing to the highest level. The term IC20 denotes the point of the concentration-response curve where the effect stands at 20%. Lower therefore signals greater potency. The compound `Cn1c2c(c(=O)n1-c1ccccc1C(F)(F)F)[C@H]1CC[C@]2(C)C1(C)C` showed a Cmax in [1] of 2150 ng/mL. This compound also showed a half-life in data set [2] of 1 h. In the data set with Mus musculus [3], the Activity entry was “Toxic”. Also, the IC50 in data set [4] turned out to be 10 nM; against Cytochrome P450 3A4, 22600 nM. In data set [5], this compound returned a clearance of 31.8 mL/min/kg. In [6], the bioavailability turned out to be 109%. Also, the Tmax in data set [7] came out at 0.7 h. In addition, in the data set on Mus musculus [8], the “inhibition (INH)” value came to 93%. Also, in [9], the solubility kinetic is more than 376 µg/mL. Also, on hERG (KCNH2), the IC20 is more than 30000 nM. Besides, in data set [10], the Vd was 1.2 L/kg. In addition, the microsomal CLint at 1 µM in [11] was 68 µL/min/mg. Moreover, the Papp in [12] turned out to be 10.9 ×10⁻⁶ cm/s.

Regarding `CC1(C)[C@@H]2CC[C@@]1(C)c1c2c(=O)n(-c2ccccc2)n1Cc1ccccc1`, the half-life in [2] was 0.9 h. Besides, in [4], the IC50 amounted to 16 nM. This compound showed a clearance in [5] of 57.5 mL/min/kg. For the same compound, the bioavailability in data set [6] was found to be 29%. For the same compound, the Tmax in data set [7] came out at 3.2 h. Moreover, the concentration in data set [13] peaked (Cmax) at 648 ng/mL. For the same compound, the solubility kinetic in data set [9] was found to be 171 µg/mL (≈ 477 µM). Besides, the Vd in [10] is 2.3 L/kg. Also, the microsomal CLint at 1 µM in data set [11] amounted to 645 µL/min/mg. Besides, the Papp in data set [12] amounted to 8.8 ×10⁻⁶ cm/s.

As to `Cn1c2c(c(=O)n1Cc1ccccc1C(F)(F)F)[C@H]1CC[C@]2(C)C1(C)C`, in data set [2], the half-life was 3 h. The IC50 came out at 10 nM in data set [4] and 4800 nM against Cytochrome P450 3A4. The clearance in data set [5] amounted to 34.8 mL/min/kg. Besides, in [6], the bioavailability came to 5%. Further, the Tmax in [7] is 0.8 h. In addition, the Cmax in data set [13] worked out at 294 ng/mL. Also, the solubility kinetic in data set [9] was found to be 246 µg/mL (≈ 675 µM). For the same compound, in [10], the Vd is 2 L/kg. In addition, in data set [11], the microsomal CLint at 1 µM worked out at 604 µL/min/mg. Further, the Papp in [12] is 8.2 ×10⁻⁶ cm/s.

With `Cn1c2c(c(=O)n1-c1cccc(I)c1)[C@H]1CC[C@]2(C)C1(C)C`, in [4], the IC50 amounted to 4 nM.

As for `CC1(C)[C@@H]2CC[C@@]1(C)c1c2c(=O)n(-c2ccc(F)cc2F)n1CCc1ccccc1`, the IC50 in data set [4] turned out to be 18 nM.

As to `Cn1c2c(c(=O)n1Cc1ccccc1)[C@H]1CC[C@]2(C)C1(C)C`, the IC50 in data set [4] was 77 nM.

Regarding `Cn1c2c(c(=O)n1-c1ccccc1)[C@H]1CC[C@]2(C)C1(C)C`, the concentration in [1] peaked (Cmax) at 335 ng/mL. In data set [2], this compound gave a half-life of 1.2 h. Also, the IC50 is 138 nM in data set [4] and more than 50000 nM against Cytochrome P450 3A4. The clearance in data set [5] was 25.7 mL/min/kg. Further, the bioavailability in data set [6] was found to be 9%. For the same compound, in [7], the Tmax was 0.5 h. Besides, in [9], the solubility kinetic worked out at 169 µg/mL (≈ 598 µM). Also, the Vd in data set [10] was 1.4 L/kg. Further, in data set [11], the microsomal CLint at 1 µM was 3.6 µL/min/mg. For the same compound, the Papp in [12] was 9.7 ×10⁻⁶ cm/s.

In the case of `CC1(C)[C@@H]2CC[C@@]1(C)c1c2c(=O)n(-c2ccc(F)cc2F)n1Cc1ccccc1`, the half-life in [2] is 0.8 h. Besides, the IC50 is 13 nM in data set [4] and 6100 nM against Cytochrome P450 3A4. Further, the clearance in [5] came to 29 mL/min/kg. The bioavailability in [6] amounted to 35%. For the same compound, in data set [7], the Tmax is 2.3 h. Besides, the “inhibition (INH)” value in the data set with Mus musculus [8] is 93%. This compound also came in with a Cmax in data set [13] of 2280 ng/mL. In addition, in data set [9], the solubility kinetic stood at 82 µg/mL (≈ 208 µM). This compound also registered an IC20 at hERG (KCNH2) of more than 30000 nM. For the same compound, in data set [10], the Vd was found to be 1 L/kg. The microsomal CLint at 1 µM in data set [11] turned out to be 582 µL/min/mg. In data set [12], the Papp is 11.2 ×10⁻⁶ cm/s.

Regarding `COc1c2c(nn1-c1ccc(C)cc1)[C@]1(C)CC[C@H]2C1(C)C`, the figures for the IC50 in data set [4] and in [14] were more than 11000 nM and more than 22000 nM, respectively.

`Cn1c2c(c(=O)n1-c1c(Cl)cccc1Cl)[C@H]1CC[C@]2(C)C1(C)C`: the IC50 in [4] is more than 11000 nM; in data set [14] it was more than 22000 nM.

As for `CCCn1c2c(c(=O)n1-c1ccccc1F)[C@H]1CC[C@]2(C)C1(C)C`, the IC50 in [4] came to 110 nM.

On to `COc1cccc(-n2c(=O)c3c(n2C)[C@]2(C)CC[C@H]3C2(C)C)c1`, for which the IC50 in [4] is 41 nM.

For the compound `C=CCn1c2c(c(=O)n1-c1ccccc1F)[C@H]1CC[C@]2(C)C1(C)C`, the IC50 in [4] worked out at 35 nM.

In turn, `Cn1c2c(c(=O)n1-c1ccccc1Cl)[C@H]1CC[C@]2(C)C1(C)C` gave a half-life in data set [2] of 4.9 h. Besides, the IC50 in data set [4] was 39 nM; against Cytochrome P450 3A4, more than 50000 nM. The clearance in [5] came to 29.3 mL/min/kg. Further, the bioavailability in data set [6] is 29%. Also, in data set [7], the Tmax stood at 1 h. The compound further showed a Cmax in data set [13] of 2840 ng/mL. For the same compound, the solubility kinetic in [9] is more than 625 µg/mL. The same compound yielded an IC20 against hERG (KCNH2) of more than 30000 nM. For the same compound, the Vd in data set [10] is 2.7 L/kg. Besides, the microsomal CLint at 1 µM in data set [11] was determined as 197 µL/min/mg. The Papp in data set [12] was 9.9 ×10⁻⁶ cm/s.

`CC1(C)[C@@H]2CC[C@@]1(C)c1c2c(=O)n(-c2ccccc2F)n1Cc1ccccc1`: the IC50 in data set [4] amounted to 12 nM.

In data set [2], `Cn1c2c(c(=O)n1-c1cc(Cl)ccc1Cl)[C@H]1CC[C@]2(C)C1(C)C` showed a half-life of 5.4 h. For the same compound, the Activity result with Mus musculus [3] is on record as “Non-toxic”. Moreover, the IC50 in data set [4] was 5 nM; against Cytochrome P450 3A4, more than 25000 nM. The same compound came in with a clearance in data set [5] of 40.2 mL/min/kg. Besides, the bioavailability in [6] stood at 71%. Further, the Tmax in [7] came out at 0.5 h. Further, the “inhibition (INH)” value in the data set with Mus musculus [8] worked out at 93%. The compound further came in with a Cmax in [13] of 280 ng/mL. In addition, the solubility kinetic in [9] was 50 µg/mL (≈ 142 µM). The compound also showed an IC20 against hERG (KCNH2) of 51000 nM. The Vd in data set [10] came out at 4.6 L/kg. For the same compound, the microsomal CLint at 1 µM in [11] came out at 170 µL/min/mg. In [12], the Papp was 6.7 ×10⁻⁶ cm/s.

Take `Cn1c2c(c(=O)n1-c1ccccc1)[C@@H]1CC[C@@]2(C)C1(C)C`: the IC50 in data set [4] turned out to be 116 nM.

For the compound `CCn1c2c(c(=O)n1-c1ccccc1)[C@H]1CC[C@]2(C)C1(C)C`, in [4], the IC50 was 18 nM.

In the case of `CC(C)n1c2c(c(=O)n1-c1ccccc1F)[C@H]1CC[C@]2(C)C1(C)C`, in data set [4], the IC50 is 22 nM.

`Cn1c2c(c(=O)n1-c1ccccn1)[C@H]1CC[C@]2(C)C1(C)C`: in [4], the IC50 was more than 5000 nM.

For the compound `Cc1ccccc1-c1cccc(Cn2c(=O)c3c(n2C)[C@]2(C)CC[C@H]3C2(C)C)c1`, the IC50 in data set [4] came to 21 nM.
